Assay results taken from ChEMBL document CHEMBL1133163, “AMP deaminase inhibitors. 4. Further N3-substituted coformycin aglycon analogues: N3-alkylmalonates as ribose 5'-monophosphate mimetics” (J Med Chem, 2000).

Columns and labels:
AMP deaminase 3 = target: T1, AMP deaminase 3 (Homo sapiens, UniProt Q01432); assay: Inhibitory activity against porcine heart or recombinant human E-type AMPDA
T1 sequence (Q01432 whole entry): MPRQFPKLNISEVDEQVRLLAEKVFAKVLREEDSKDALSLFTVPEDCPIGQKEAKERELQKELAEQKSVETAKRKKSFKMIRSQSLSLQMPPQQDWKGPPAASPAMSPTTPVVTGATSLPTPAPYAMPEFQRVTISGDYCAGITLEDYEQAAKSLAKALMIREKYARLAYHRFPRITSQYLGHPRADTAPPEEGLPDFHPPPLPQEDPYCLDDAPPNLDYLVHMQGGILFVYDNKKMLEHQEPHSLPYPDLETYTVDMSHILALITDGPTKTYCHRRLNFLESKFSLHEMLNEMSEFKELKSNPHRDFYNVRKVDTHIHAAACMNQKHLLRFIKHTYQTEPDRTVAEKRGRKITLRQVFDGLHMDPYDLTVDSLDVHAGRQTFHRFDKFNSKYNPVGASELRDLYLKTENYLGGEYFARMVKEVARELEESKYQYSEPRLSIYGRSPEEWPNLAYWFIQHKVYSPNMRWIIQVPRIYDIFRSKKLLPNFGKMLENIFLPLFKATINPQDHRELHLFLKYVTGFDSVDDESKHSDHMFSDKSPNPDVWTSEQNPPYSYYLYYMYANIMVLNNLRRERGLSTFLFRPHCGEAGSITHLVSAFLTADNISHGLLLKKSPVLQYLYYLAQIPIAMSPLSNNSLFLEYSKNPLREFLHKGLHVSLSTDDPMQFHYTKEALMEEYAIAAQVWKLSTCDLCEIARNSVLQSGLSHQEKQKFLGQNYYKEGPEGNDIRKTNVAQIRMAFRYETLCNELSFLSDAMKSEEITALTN

Adenosine deaminase = target: T2, Adenosine deaminase (Bos taurus, UniProt P56658); assay: Inhibitory activity against calf intestinal Adenosine deaminase (ADA)
T2 sequence (P56658 whole entry): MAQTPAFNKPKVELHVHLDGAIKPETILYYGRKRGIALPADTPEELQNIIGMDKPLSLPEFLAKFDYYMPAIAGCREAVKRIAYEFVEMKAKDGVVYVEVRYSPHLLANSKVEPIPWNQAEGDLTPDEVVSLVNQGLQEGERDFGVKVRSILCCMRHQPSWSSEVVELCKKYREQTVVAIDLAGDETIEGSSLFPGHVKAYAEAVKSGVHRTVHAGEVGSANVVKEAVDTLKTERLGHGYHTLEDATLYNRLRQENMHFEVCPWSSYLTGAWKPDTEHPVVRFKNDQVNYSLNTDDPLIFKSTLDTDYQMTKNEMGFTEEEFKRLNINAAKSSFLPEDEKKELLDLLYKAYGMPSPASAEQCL

SMILES | Ki (AMP deaminase 3) [µM] | Ki (Adenosine deaminase) [µM]
CCOC(=O)C(CCCCn1cnc2c1N=CNCC2O)(Cc1ccccc1C(F)(F)F)C(=O)OCC (centres undefined) | 0.36 | > 7.5
O=C(O)C(CCCCn1cnc2c1N=CNCC2O)(Cc1ccccc1)C(=O)O (centres undefined) | 0.17 | > 7.5
CCOC(=O)C(CCCCn1cnc2c1N=CNCC2O)(Cc1ccccc1)C(=O)OCC (centres undefined) | 2.6 | > 7.5
CC(CCCCn1cnc2c1NC=NCC2O)(C(N)=O)C(=O)O (centres undefined) | 7.8 | > 7.5
CC(CCCCn1cnc2c1NC=NCC2O)(C(=O)O)C(=O)O (centres undefined) | 6 | > 7.5
CC(CCCCn1cnc2c1N=CNCC2O)(C(=O)O)C(=O)NCCc1ccccc1 (centres undefined) | 2.1 | > 7.5
CC(CCCCn1cnc2c1NC=NCC2O)(C(=O)OCc1ccccc1)C(=O)OCc1ccccc1 (centres undefined) | 5.2 | > 7.5
O=C(O)C(CCCCn1cnc2c1N=CNCC2O)C(=O)NCc1ccc(Cl)cc1 (centres undefined) | 1.3 | > 7.5
O=C(O)C(CCCCn1cnc2c1NC=NCC2O)C(=O)O (centres undefined) | 5.1 | > 7.5
CC(CCCCn1cnc2c1NC=NCC2O)(C(=O)O)C(=O)NC1CCCCC1 (centres undefined) | 5.2 | > 7.5
O=C(O)C(CCCCn1cnc2c1N=CNCC2O)C(=O)OCc1ccccc1 (centres undefined) | 0.36 | > 7.5
O=C(O)C(CCCCn1cnc2c1NC=NCC2O)(Cc1cccc(C(F)(F)F)c1)C(=O)O (centres undefined) | 0.029 | > 7.5
O=C(O)CCCCCn1cnc2c1N=CNCC2O (centres undefined) | 4.2 | 
CC(CCCCn1cnc2c1NC=NCC2O)(Cc1cccc(C(F)(F)F)c1)C(=O)O (centres undefined) | 1.2 | > 7.5
O=C(OCc1ccccc1)C(CCCCn1cnc2c1N=CNCC2O)(Cc1ccccc1C(F)(F)F)C(=O)OCc1ccccc1 (centres undefined) | 0.25 | > 7.5
CCOC(=O)C(C)(CCCCn1cnc2c1NC=NCC2O)C(=O)OCC (centres undefined) | 44.8 | > 500
O=C(O)C(CCCCn1cnc2c1N=CNCC2O)C(=O)NCc1ccccc1 (centres undefined) | 2.4 | > 7.5
CC(CCCCn1cnc2c1NC=NCC2O)(C(=O)O)C(=O)OCc1ccccc1 (centres undefined) | 0.9 | > 7.5
O=C(O)C(CCCCn1cnc2c1NC=NCC2O)(Cc1ccc(C(F)(F)F)cc1)C(=O)O (centres undefined) | 0.04 | > 7.5
O=C(O)C(CCCCn1cnc2c1NC=NCC2O)(Cc1ccccc1C(F)(F)F)C(=O)O (centres undefined) | 0.041 | > 7.5
